Literature values, collected in US20030190360A1, “Chronotherapeutic dosage forms containing glucocorticosteroid and methods of treatment” (priority 2001, published 2003).

Settings: equivalent doses of glucocorticoids

## C[C@]12C=CC(=O)C=C1CC[C@H]1[C@@H]3C[C@@H](O)[C@](O)(C(=O)CO)[C@@]3(C)C[C@H](O)[C@@]12F [Triamcinolone]
  Approximate Equivalent Dose: 4 mg

## C[C@]12CCC(=O)C=C1CC[C@@H]1[C@@H]2C(=O)C[C@@]2(C)[C@H]1CC[C@]2(O)C(=O)CO [Cortisone]
  Approximate Equivalent Dose: 25 mg

## C[C@]12C=CC(=O)C=C1CC[C@@H]1[C@@H]2[C@@H](O)C[C@@]2(C)[C@H]1CC[C@]2(O)C(=O)CO [Prednisolone]
  Approximate Equivalent Dose: 5 mg

## C[C@]12CCC(=O)C=C1CC[C@@H]1[C@@H]2[C@@H](O)C[C@@]2(C)[C@H]1CC[C@]2(O)C(=O)CO [Hydrocortisone]
  Approximate Equivalent Dose: 20 mg
